Test results reported in patent US20050009158A1, “Process for enzymatically resolving an enantiomeric mixture of alpha-hydroxy acids” (priority 2003, published 2005).

What was measured:
[1] = Non-enzymatic hydrolysis of HMB esters in phosphate buffer; assay type: physicochemical; settings: for HMB/HMB-ester ratio for non-enzyme catalyzed hydrolysis: ester 1 mM, phosphate buffer pH 7.2, approx. 25° C., 24 hours
Experimental: To carry out the hydrolysis of the ester, HMB-methyl ester (1 mM) was added to a 40 mL reaction vial along with water (12 mL) and a 0.1 M phosphate buffer having a pH of 7.2 (2 mL). The reaction was carried out at a constant temperature of, approximately 25° C. and constant stirring over a period of 24 hours. During the course of the reaction, the pH of the reaction mixture was maintained at 7.2. After the reaction was complete, the reaction solvents were removed from the reaction mixture with a rotary evaporator.
(§1) The non-enzymatic hydrolysis and the lipase mediated hydrolysis reactions were each carried out at a constant temperature of approximately 25° C. with constant stirring over the course of a 24 hour period. During the course of reaction pH of the reaction mixture was maintained at 7.2. After the reaction was complete, the reaction solvents were removed from the reaction mixture with a rotary evaporator.
(§2) After each of the hydrolysis reactions, the dry hydrolysis reaction product containing the α-hydroxy acid of HMB was dissolved in ethanol (10 mL), a sample of the reaction product solution (1 mL) was taken and diluted with additional ethanol (9 mL) and the further diluted solution was filtered through a filter having a pore size of 2 μm (Model manufactured by Millipore Corp. of Bedford, Mass.). The filtered extract was then introduced into the liquid chromatograph and the free acid and residual ester were separated on a C-8 reverse phase liquid chromatography column of the type described above.
(§3) Ethanol was removed from the remaining product mixture by rotary evaporation and the α-hydroxy acid product was re-dissolved in ethyl acetate (5 mL). The solution containing the α-hydroxy acid product was transferred to a 15 mL centrifuge tube to which 1 M sodium bicarbonate (6 mL) was added after which the centrifuge tube was shaken for a period of about five minutes, thus forming an ethyl acetate layer containing HMB-methyl ester and a sodium bicarbonate layer containing D- and L-enantiomers of the α-hydroxy acid, HMB. These layers were then separated with a centrifuge and each of the separated layers were brought to near dryness with a rotary evaporator and the residue from the bicarbonate layer was dissolved in ethanol (5 mL) to form a solution which was filtered and analyzed for D- and L-enantiomers of HMB by chiral liquid chromatography in accordance with the method set forth below.
(§4) The dry residue from the ethyl acetate layer containing HMB-methyl ester was hydrolyzed with 6N HCl (2 mL) for a period of two hours to produce HMB which was solubilized in ethanol. The ethanol solutions were filtered and analyzed for D- and L-enantiomers of HMB by chiral liquid chromatography in accordance with the method set forth below.
(§5) Separation of the D- and L-forms of the α-hydroxy acid of HMB present in the sodium bicarbonate phase was carried out by liquid chromatography (LC) with a UV absorbance detector in tandem with electrospray ionization mass spectrometry in the negative mode (ESI(−)MS). […] The electrospray ionization mass spectrometer utilized was manufactured by Hitachi High Technologies (Model M-8000). The mobile phase composition consisted of 70% ammonium acetate buffer (pH 4, 30 mM) and 30% methanol. A macrocyclic antibiotic based column (Chirobiotic-TAG), manufactured by Advanced Separation Technologies, Inc., Whippany, N.J., was used for the chiral liquid chromatography.

[2] = target: T1, Novo 435 (Candida antarctica) lipase (Moesziomyces antarcticus, UniProt P41365); experiment: Novo 435 (Candida antarctica) lipase catalyzed hydrolysis of HMB esters; assay type: biochemical; settings: for HMB/HMB-ester ratio for Novo 435 (Candida antarctica) lipase catalyzed hydrolysis: ester 1 mM, immobilized lipase 6 mg, pH 7.2, approx. 25° C., 24 hours; for extent of ester hydrolysis (in words): Novo 435, RPLC
T1 construct: purchased Novo (only as part of the product name) 435 (also given as 438)
Experimental: In another lipase mediated hydrolysis, HMB-methyl ester (1 mM) was added to a 40 mL reaction vial along with water (12 mL), a 0.1 M phosphate buffer with a pH of 7.2 (2 mL) which was contacted with an immobilized sample of Novo 438 (Candida antarctica) (6 mg).
as §1, §2

[3] = target: T2, porcine pancreatic lipase (PPL) (Sus scrofa, UniProt P00591); experiment: PPL lipase catalyzed hydrolysis of HMB esters; assay type: biochemical; settings: for HMB/HMB-ester ratio for PPL lipase catalyzed hydrolysis: ester 1 mM, PPL 120 mg, pH 7.2, approx. 25° C., 24 hours; for Enantioselectivity of hydrolysis: Free Acid (L/D) / Enantioselectivity of hydrolysis: Ester (L/D): lipase PPL; for Enantioselectivity of hydrolysis: Free Acid (L/D): chiral LC of HMB from bicarbonate layer; for Enantioselectivity of hydrolysis: Ester (L/D): unhydrolyzed ester, chiral LC after 6N HCl hydrolysis; for extent of ester hydrolysis (in words): PPL, RPLC
T2 sequence (P00591 1-450): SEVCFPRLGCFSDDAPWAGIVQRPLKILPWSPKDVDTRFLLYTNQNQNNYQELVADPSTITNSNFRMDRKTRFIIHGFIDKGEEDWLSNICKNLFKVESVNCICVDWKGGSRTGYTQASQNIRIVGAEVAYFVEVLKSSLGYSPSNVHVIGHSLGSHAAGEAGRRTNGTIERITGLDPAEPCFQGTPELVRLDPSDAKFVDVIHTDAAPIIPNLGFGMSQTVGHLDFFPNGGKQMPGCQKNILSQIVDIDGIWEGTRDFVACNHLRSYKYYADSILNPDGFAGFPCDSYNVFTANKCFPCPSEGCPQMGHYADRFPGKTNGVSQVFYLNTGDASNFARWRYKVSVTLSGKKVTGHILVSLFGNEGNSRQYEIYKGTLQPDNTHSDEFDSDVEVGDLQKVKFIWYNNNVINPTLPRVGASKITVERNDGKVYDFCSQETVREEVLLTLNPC
Experimental: In another lipase mediated hydrolysis, HMB-methyl ester (1 mM) was added to a 40 mL reaction vial along with water (12 mL), a 0.1 M phosphate buffer with a pH of 7.2 (2 mL) and PPL (120 mg).
as §1, §2, §3, §4, §5
As part of these investigations, HMB-butyl ester and HMB obtained from the hydrolysis were recovered from the reaction mixture through portioning in ethyl acetate and […] bicarbonate solution. The HMB acid was recovered from the bicarbonate solution; it was introduced into an enantioselective HPLC system. The recovered HMB-butyl ester was hydrolyzed with 6N HCl (chemically) and then introduced into the enantioselective HPLC system. Chromatograms of HMB enantiomers obtained after non-enzymatic and PPL catalyzed HMB-butyl ester hydrolysis are illustrated in FIGS. 7A-B respectively.

Aspergillus niger lipase = Aspergillus niger lipase catalyzed hydrolysis of HMB esters; assay type: biochemical; settings: for HMB/HMB-ester ratio for Aspergillus niger lipase catalyzed hydrolysis: ester 1 mM, lipase 120 mg, pH 7.2, approx. 25° C., 24 hours; for extent of ester hydrolysis (in words): Aspergillus niger lipase, RPLC
Experimental: In one lipase mediated hydrolysis, HMB-methyl ester (1 mM) was added to a 40 mL reaction vial along with water (12 mL), a 0.1 M phosphate buffer with a pH of 7.2 (2 mL) and Aspergillus niger (120 mg).
as §1, §2, §3, §4, §5

Candida rugosa lipase = Candida rugosa lipase catalyzed hydrolysis of HMB esters; assay type: biochemical; settings: for HMB/HMB-ester ratio for Candida rugosa lipase catalyzed hydrolysis: ester 1 mM, lipase 120 mg, pH 7.2, approx. 25° C., 24 hours; for extent of ester hydrolysis (in words): Candida rugosa lipase, RPLC
Experimental: In another lipase mediated hydrolysis, HMB-methyl ester (1 mM) was added to a 40 mL reaction vial along with water (12 mL), a 0.1 M phosphate buffer with a pH of 7.2 (2 mL) and Candida rugosa (120 mg).
as §1, §2, §3, §4, §5

[4] = Hydrolysis of HMB propyl ester with alginate beads without enzymes (control); assay type: physicochemical; settings: water, 37° C., 2 hours and 3.30 hours
Experimental: Reversed phase chromatography method was used for all the chromatograms set forth in the drawings. The mobile phases chosen were water +0.1% trifluroacetic acid (TFA) (solvent A) and acetonitrile +0.1% TFA (solvent B). The column was maintained at 30° C. The reaction was monitored at 220 nm and gradient elution for the mobile phases used was 0 to 55% solvent B in 30 min.
The hydrolysis of HMBP was also checked using alginate beads without enzymes(CONTROL). The gel beads were placed in a conical flask of water (20 ml) and HMB propyl ester (240 mg) were added to it. The mixture was thereafter maintained at a temperature of 37° C. The chromatograms of FIGS. 15A and 15B are obtained for the product formed, for the same time constraints as before.

immobilized PPL = target: T3, immobilized PPL (Sus scrofa, UniProt P00591); experiment: Hydrolysis of HMB propyl ester using gel-bound (alginate-immobilized) PPL beads; assay type: biochemical, porcine; settings: after a run of 3 hrs
T3 sequence (P00591 1-450): T2 sequence (P00591 1-450)
Experimental: Sodium alginate (500 mg), gelatin (300 mg) and water (9 ml) are introduced into and mixed in a 50 ml conical flask. The mix is then left undisturbed for 1 hour, after which the flask and its contents are autoclaved (120° C., 15 min.). The contents are then cooled at room temperature under continuous stirring. After the contents have cooled down, PPL (100 mg) in water (1 ml) is added to the flask and the contents stirred for further 15-20 min. Then glutaraldehyde (300 μl) is added to the flask contents and the mixture stirred for another 15 min. These contents are added drop-wise from a distance of around 10 cm by forcing them through the hypodermic needle in a 0.18M calcium chloride solution (2°-3° C.) . The gel breads solidify immediately upon contact with the calcium chloride solution, and after 30 min. are solidified. The solidified gel beads are washed 3-4 times with water to remove any loose enzyme from the surface.
The immobilized enzyme catalyst beads as prepared in the manner described in Example 6 were placed in a conical flask. […]
Reversed phase chromatography method was used for all the chromatograms set forth in the drawings. […] The reaction was monitored at 220 nm and gradient elution for the mobile phases used was 0 to 55% solvent B in 30 min.

T1 sequence (P41365 26-342): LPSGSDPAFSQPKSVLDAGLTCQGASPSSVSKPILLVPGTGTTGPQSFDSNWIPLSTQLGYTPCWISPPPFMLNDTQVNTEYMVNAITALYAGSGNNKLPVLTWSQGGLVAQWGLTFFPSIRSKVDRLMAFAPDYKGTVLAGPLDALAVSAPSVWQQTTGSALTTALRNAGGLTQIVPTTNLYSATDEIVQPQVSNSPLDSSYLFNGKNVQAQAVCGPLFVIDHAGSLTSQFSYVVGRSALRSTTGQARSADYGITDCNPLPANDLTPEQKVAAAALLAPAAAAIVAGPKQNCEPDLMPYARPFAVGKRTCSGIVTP

SMILES | HMB/HMB-ester ratio for non-enzyme catalyzed hydrolysis [1] | HMB/HMB-ester ratio for Novo 435 (Candida antarctica) lipase catalyzed hydrolysis [2] | HMB/HMB-ester ratio for PPL lipase catalyzed hydrolysis [3] | HMB/HMB-ester ratio for Aspergillus niger lipase catalyzed hydrolysis (Aspergillus niger lipase) | Enantioselectivity of hydrolysis: Free Acid (L/D) (Aspergillus niger lipase; lipase Aspergillus niger, chiral LC of HMB from bicarbonate layer) | Enantioselectivity of hydrolysis: Ester (L/D) (Aspergillus niger lipase; lipase Aspergillus niger, unhydrolyzed ester, chiral LC after 6N HCl hydrolysis) | HMB/HMB-ester ratio for Candida rugosa lipase catalyzed hydrolysis (Candida rugosa lipase) | Enantioselectivity of hydrolysis: Free Acid (L/D) [3] | Enantioselectivity of hydrolysis: Ester (L/D) [3] | Enantioselectivity of hydrolysis: Free Acid (L/D) (Candida rugosa lipase; lipase Candida rugosa, chiral LC of HMB from bicarbonate layer) | Enantioselectivity of hydrolysis: Ester (L/D) (Candida rugosa lipase; lipase Candida rugosa, unhydrolyzed ester, chiral LC after 6N HCl hydrolysis) | hydrolysis with alginate beads without enzymes [4] | conversion of ester to HMB acid (immobilized PPL) [%] | extent of ester hydrolysis (in words) [2] | extent of ester hydrolysis (in words) [3] | extent of ester hydrolysis (in words) (Aspergillus niger lipase) | extent of ester hydrolysis (in words) (Candida rugosa lipase) | ester hydrolyzed by non-enzymatic hydrolysis ([1]; FIG. 4A) | D- and L-HMB enantiomers obtained through chemical hydrolysis ([1]; non-enzymatic hydrolysis, FIG. 7A) | concentration of L-enantiomer relative to D-enantiomer of HMB obtained ([3]; PPL catalyzed hydrolysis, FIG. 7B)
CSCCC(O)C(=O)OC(C)C (centres unmarked) [HMB-isopropyl ester, HMB isopropyl ester] | 0.36 | 165 | 3.3 | 0.81 | 68/32 | 32/68 | 9.8 |  |  |  |  |  |  |  |  |  |  |  |  | 
CCOC(=O)C(O)CCSC (centres unmarked) [HMB-ethyl ester, HMB ethyl ester] | 0.53 |  | 0.94 | 16.71 |  |  | 7.84 | 57/43 | 43/57 | 62/38 | 38/62 |  |  |  |  |  |  |  |  | 
CCCOC(=O)C(O)CCSC (centres unmarked) [HMB-propyl ester, HMB propyl ester] | 0.09 | 52.27 | 1.69 | 149.24 |  |  | 84.45 | 75/25 | 22/78 |  |  | no hydrolysis | 50 |  |  |  |  |  |  | 
COC(=O)C(O)CCSC (centres unmarked) [HMB-methyl ester, HMB methyl ester] | 1.45 | 128 | 2.53 | 4.55 |  |  | 62.37 |  |  |  |  |  |  | near completion | partial | partial | near completion |  |  | 
CCCCOC(=O)C(O)CCSC (centres unmarked) [HMB-butyl ester, HMB butyl ester] | 0.09 | 176.3 | 2.0 | 160.57 |  |  | 42.6 | 81/19 | 19/81 |  |  |  |  | Essentially all | only partial | Essentially all | Essentially all | less than 1% | equal concentrations | nearly four times
